The source made the active and inactive calls. The rule behind the calls is not given here.
Tests used:
Streptomyces alboniger [1] = assay: Antimicrobial activity against Streptomyces alboniger IFO 12738 assessed as inhibition of aerial mycelial growth at 0.04 ug/disk after 5 days by paper disk method; type: functional, organism-based
Streptomyces alboniger [2] = assay: Antimicrobial activity against Streptomyces alboniger IFO 12738 assessed as inhibition of aerial mycelial growth at 0.4 ug/disk after 5 days by paper disk method; type: functional
Streptomyces alboniger [3] = assay: Antimicrobial activity against Streptomyces alboniger IFO 12738 assessed as inhibition of aerial mycelial growth at 4 ug/disk after 5 days by paper disk method; type: functional
[4] = test system: Streptomyces acidiscabies; assay: Antimicrobial activity against Streptomyces acidiscabies ATCC 4900315 assessed as inhibition of aerial mycelial growth at 0.4 ug/disk after 5 days by paper disk method; type: functional; settings: for zone of inhibition at 0.4 µg/disc: ATCC 4900315, 120 h, read-out: DIZ
[5] = test system: Streptomyces acidiscabies; assay: Antimicrobial activity against Streptomyces acidiscabies ATCC 4900315 assessed as inhibition of aerial mycelial growth at 0.04 ug/disk after 5 days by paper disk method; type: functional
[6] = test system: Streptomyces acidiscabies; assay: Antimicrobial activity against Streptomyces acidiscabies ATCC 4900315 assessed as inhibition of aerial mycelial growth at 4 ug/disk after 5 days by paper disk method; type: functional; settings: for zone of inhibition at 4 µg/disc: ATCC 4900315, 120 h, read-out: DIZ
Streptomyces scabiei [7] = assay: Growth stimulation of Streptomyces scabiei ATCC 4917314 at 0.4 ug/disk after 5 days by paper disk method; type: functional; settings: ATCC 4917314, 120 h, read-out: DIZ
Streptomyces scabiei [8] = assay: Growth stimulation of Streptomyces scabiei ATCC 4917314 at 4 ug/disk after 5 days by paper disk method; type: functional
Streptomyces scabiei [9] = assay: Antimicrobial activity against Streptomyces scabiei ATCC 4917314 assessed as inhibition of aerial mycelial growth at 0.04 ug/disk after 5 days by paper disk method; type: functional; settings: for zone of inhibition at 0.04 µg/disc: ATCC 4917314, 120 h, read-out: DIZ
Streptomyces scabiei [10] = assay: Antimicrobial activity against Streptomyces scabiei ATCC 4917314 assessed as inhibition of aerial mycelial growth at 4 ug/disk after 5 days by paper disk method; type: functional; settings: for zone of inhibition at 4 µg/disc: ATCC 4917314, 120 h, read-out: DIZ
Streptomyces scabiei [11] = assay: Antimicrobial activity against Streptomyces scabiei ATCC 4917314 assessed as inhibition of aerial mycelial growth at 0.40 ug/disk after 5 days by paper disk method; type: functional; settings: for zone of inhibition at 0.4 µg/disc: ATCC 4917314, 120 h, read-out: DIZ
Streptomyces alboniger [12] = assay: Antimicrobial activity against Streptomyces alboniger IFO 12738 assessed as inhibition of growth at 4 ug/disk after 5 days by paper disk method; type: functional; settings: IFO 12738, 120 h, read-out: DIZ
[13] = test system: Streptomyces acidiscabies; assay: Antimicrobial activity against Streptomyces acidiscabies ATCC 4900315 assessed as inhibition of growth at 0.4 ug/disk after 5 days by paper disk method; type: functional; settings: ATCC 4900315, 120 h, read-out: DIZ
[14] = test system: Streptomyces acidiscabies; assay: Antimicrobial activity against Streptomyces acidiscabies ATCC 4900315 assessed as inhibition of growth at 4 ug/disk after 5 days by paper disk method; type: functional; settings: ATCC 4900315, 120 h, read-out: DIZ
Streptomyces scabiei [15] = assay: Antimicrobial activity against Streptomyces scabiei ATCC 4917314 assessed as inhibition of growth at 4 ug/disk after 5 days by paper disk method; type: functional; settings: ATCC 4917314, 120 h, read-out: DIZ
[16] = test system: Streptomyces acidiscabies; assay: Reduction in concanamycins A and B production in Streptomyces acidiscabies ATCC 4900315 at 1.5 ug/ml after 5 days relative to untreated control; type: functional, organism-based
[17] = test system: Streptomyces acidiscabies; assay: Reduction in thaxtomin A production in Streptomyces acidiscabies ATCC 4900315 at 1.5 ug/ml after 5 days relative to untreated control; type: functional; design: scale not given: the % may be the effect or the level left
Streptomyces scabiei [18] = assay: Reduction in concanamycins A and B production in Streptomyces scabiei ATCC 4917314 at 1.2 ug/ml after 5 days relative to untreated control; type: functional; design: scale not given: the % may be the effect or the level left
Streptomyces scabiei [19] = assay: Reduction in thaxtomin A production in Streptomyces scabiei ATCC 4917314 at 1.2 ug/ml after 5 days relative to untreated control; type: functional; design: scale not given: the % may be the effect or the level left
Streptomyces scabiei [20] = assay: Antimicrobial activity against Streptomyces scabiei ATCC 4917314 assessed as mycelial weigh change at 1.2 ug/ml after 5 days relative to untreated control; type: functional
[21] = test system: Streptomyces acidiscabies; assay: Antimicrobial activity against Streptomyces acidiscabies ATCC 4900315 assessed as mycelial weigh change at 1.5 ug/ml after 5 days relative to untreated control; type: functional
[22] = test system: Streptomyces acidiscabies; assay: Reduction in concanamycins A and B production in Streptomyces acidiscabies ATCC 4900315 at 0.45 ug/ml after 5 days relative to untreated control; type: functional, organism-based
[23] = test system: Streptomyces acidiscabies; assay: Reduction in thaxtomin A production in Streptomyces acidiscabies ATCC 4900315 at 0.45 ug/ml after 5 days relative to untreated control; type: functional; design: scale not given: the % may be the effect or the level left
Streptomyces scabiei [24] = assay: Reduction in concanamycins A and B production in Streptomyces scabiei ATCC 4917314 at 3.6 ug/ml after 5 days relative to untreated control; type: functional; design: scale not given: the % may be the effect or the level left
Streptomyces scabiei [25] = assay: Reduction in thaxtomin A production in Streptomyces scabiei ATCC 4917314 at 3.6 ug/ml after 5 days relative to untreated control; type: functional; design: scale not given: the % may be the effect or the level left
[26] = test system: Streptomyces acidiscabies; assay: Antimicrobial activity against Streptomyces acidiscabies ATCC 4900315 assessed as mycelial weigh change at 0.45 ug/ml after 5 days relative to untreated control; type: functional
Streptomyces scabiei [27] = assay: Antimicrobial activity against Streptomyces scabiei ATCC 4917314 assessed as mycelial weigh change at 3.6 ug/ml after 5 days relative to untreated control; type: functional
Streptomyces scabiei [28] = assay: Antimicrobial activity against Streptomyces scabiei ATCC 4917314 assessed as inhibition of growth at 0.4 ug/disk after 5 days by paper disk method; type: functional

| Compound | diameter of the inhibition zone (DIZ) (Streptomyces alboniger [1]) | diameter of the inhibition zone (DIZ) (Streptomyces alboniger [2]) | diameter of the inhibition zone (DIZ) (Streptomyces alboniger [3]) | diameter of the inhibition zone (DIZ) [4] | diameter of the inhibition zone (DIZ) [5] | diameter of the inhibition zone (DIZ) [6] | diameter of the inhibition zone (DIZ) (Streptomyces scabiei [9]) | diameter of the inhibition zone (DIZ) (Streptomyces scabiei [10]) | diameter of the inhibition zone (DIZ) (Streptomyces scabiei [11]) | zone of inhibition at 4 µg/disc [14] | zone of inhibition at 4 µg/disc (Streptomyces scabiei [15]) | zone of inhibition at 4 µg/disc (Streptomyces scabiei [10]) | zone of inhibition at 0.4 µg/disc (Streptomyces scabiei [11]) | zone of inhibition at 0.4 µg/disc [4] | zone of inhibition at 4 µg/disc [6] | zone of inhibition at 0.04 µg/disc (Streptomyces scabiei [9]) | further results |
| --- | --- | --- | --- | --- | --- | --- | --- | --- | --- | --- | --- | --- | --- | --- | --- | --- | --- |
| N[C@@H]1CONC1=O [CYCLOSERINE] | inactive | inactive | inactive | inactive | inactive | inactive | inactive | inactive | inactive | – | – | – | – | – | – | – | zone of inhibition at 0.4 µg/disc (Streptomyces scabiei [7]): 24 mm; Activity (Streptomyces scabiei [8]): 44 mm |
| NC[C@H]1O[C@H](O[C@H]2[C@H](O)[C@@H](O[C@H]3O[C@H](CO)[C@@H](O)[C@H](N)[C@H]3O)[C@H](N)C[C@@H]2N)[C@H](O)[C@@H](O)[C@@H]1O [KANAMYCIN] | inactive | inactive | inactive | inactive | inactive | inactive | inactive | – | – | 18 mm | 13 mm | 18 mm | 10 mm | – | – | – | zone of inhibition at 4 µg/disc (Streptomyces alboniger [12]): 14 mm; zone of inhibition at 0.4 µg/disc [13]: 12 mm |
| CN(C)[C@@H]1C(O)=C(C(N)=O)C(=O)[C@@]2(O)C(O)=C3C(=O)c4c(O)ccc(Cl)c4[C@@](C)(O)[C@H]3C[C@@H]12 [CHLORTETRACYCLINE] | inactive | inactive | inactive | – | – | – | – | – | – | 16 mm | 19 mm | 27 mm | 20 mm | 19 mm | 35 mm | 11 mm | Activity [16]: Below limit of detection; Activity [17]: <10%; Activity (Streptomyces scabiei [18]): 0.1%; Activity (Streptomyces scabiei [19]): 0.6%; Activity (Streptomyces scabiei [20]): 2.1%; Activity [21]: 6.8%; zone of inhibition at 0.04 µg/disc ([5]; ATCC 4900315, 120 h, read-out: DIZ): 11 mm |
| CN[C@@H]1[C@H](O)[C@H](NC)[C@H]2O[C@@]3(O)C(=O)C[C@@H](C)O[C@H]3O[C@@H]2[C@H]1O [SPECTINOMYCIN] | inactive | inactive | – | – | inactive | – | – | – | – | – | – | 19 mm | 11 mm | 20 mm | 31 mm | 27 mm | Activity [22]: Below limit of detection; Activity [23]: 59%; Activity (Streptomyces scabiei [24]): 1.1%; Activity (Streptomyces scabiei [25]): 0.8%; Activity [26]: 8.31%; Activity (Streptomyces scabiei [27]): 5.01%; zone of inhibition at 4 µg/disc (Streptomyces alboniger [3]; IFO 12738, 120 h, read-out: DIZ): 35 mm; diameter of the inhibition zone (DIZ) (Streptomyces scabiei [28]): inactive |
| CO/N=C(\C(=O)N[C@@H]1C(=O)N2C(C(=O)O)=C(COC(C)=O)CS[C@H]12)c1csc(N)n1 [CEFOTAXIME] | inactive | inactive | inactive | inactive | inactive | – | inactive | inactive | inactive | – | – | – | – | – | 15 mm | – | zone of inhibition at 4 µg/disc (Streptomyces scabiei [8]; Streptomyces scabiei, ATCC 4917314, 120 h, read-out: DIZ): 22 mm |

— ChEMBL document CHEMBL3044676, “Effect of Antibiotics on Formation of Aerial Mycelium and Production of Phytotoxins in Streptomyces spp” (2003)
